Test results published in PubChem BioAssay AID608 (Sanford-Burnham Center for Chemical Genomics, 2007).
pKd: −log10 of the molar value. Calls of active or inactive are those of the source. The rule behind the calls is not given here.

biological target: Peptidyl-prolyl cis-trans isomerase FKBP1A (Homo sapiens) (UniProt P62942); assay: FKBP12 binders, biophysical, NMR detection (AID 608); conditions: NMR binding, purified FKBP12
Sequence (P62942 whole entry, looked up): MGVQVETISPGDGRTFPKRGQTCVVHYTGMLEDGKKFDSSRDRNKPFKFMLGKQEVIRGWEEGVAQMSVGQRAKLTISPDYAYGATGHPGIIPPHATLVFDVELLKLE

| SMILES | Kd | pKd |
| --- | --- | --- |
| NCc1cccc2c1OCCO2 | > 4 mM (inactive) | – |
| Cc1cc(C(=O)NCc2ccccc2Br)no1 | > 4 mM (inactive) | – |
| CCOc1ccc(-c2n[nH]c(=S)n2C)cc1 | > 4 mM (inactive) | – |
| Cc1ccc(SCc2cc(=O)n3[nH]c(C)nc3n2)cc1 | > 4 mM (inactive) | – |
| CN1CCN(S(=O)(=O)c2ccc(=O)[nH]c2)CC1 | > 4 mM (inactive) | – |
| Cc1nc(-c2ccccc2)ncc1C(=O)O | > 4 mM (inactive) | – |
| CCC(=O)Oc1ccc(N2C(=O)CCC2=O)cc1 | > 4 mM (inactive) | – |
| O=C1CC(C(=O)O)c2ccccc21 (stereo not given) | > 4 mM (inactive) | – |
| CC(C)c1ccc(OCC(=O)N2CCOCC2)cc1 | – | 3.40 |
| OC12CC3CC(CC(C3)C1)C2 | > 4 mM (inactive) | – |
| c1ccc(-c2nnc3sc(-c4ccncc4)nn23)cc1 | > 4 mM (inactive) | – |
| O=c1[nH]cnc2nn(-c3ccccc3)nc12 | > 4 mM (inactive) | – |
| Cc1cc(N)on1 | > 4 mM (inactive) | – |
| CC(=O)c1cccc(N=C2NC(=O)CS2)c1 | > 4 mM (inactive) | – |
| C=C(C)C1(O)OC(=O)C=C1OC (stereo not given) | > 4 mM (inactive) | – |
| COc1ccccc1NC(=O)C1CCCCC1 | > 4 mM (inactive) | – |
| COc1c2ccoc2nc2c(OC)c(OCC(O)C(C)(C)O)ccc12 (stereo not given) | > 4 mM (inactive) | – |
| CC(C)CCCC(C)[C@H]1CCC2C3CC=C4C[C@@H](O)CC[C@]4(C)C3CC[C@@]21C (stereo not given in full) | > 4 mM (inactive) | – |
| Cc1cc(C)n(-c2nc(N)cc(=O)[nH]2)n1 | > 4 mM (inactive) | – |
| CCN1C(=O)c2cccc3c(S(N)(=O)=O)ccc1c23 | > 4 mM (inactive) | – |
| CN1CCC(N(C)C2CCN(C)CC2)CC1 | > 4 mM (inactive) | – |
| CC(C)=CC(=O)Nc1ccccc1C(N)=O | > 4 mM (inactive) | – |
| O=C(O)C(Cc1cnc[nH]1)N1C(=O)c2ccccc2C1=O (stereo not given) | > 4 mM (inactive) | – |
| CC(CC(=O)NN)C1(O)CCCCC1 (stereo not given) | > 4 mM (inactive) | – |
| O=C(CSc1ncn[nH]1)c1ccc2c(c1)OCO2 | > 4 mM (inactive) | – |

| SMILES | Kd | pKd |
| --- | --- | --- |
| CC(=O)Nc1ccc(S(=O)(=O)NCC2CCCO2)cc1 (stereo not given) | > 4 mM (inactive) | – |
| O=C(O)c1ccc(Oc2ccccc2)nc1 | > 4 mM (inactive) | – |
| CN1CCC(NC(=O)c2c(F)cccc2Cl)CC1 | > 4 mM (inactive) | – |
| CS(=O)(=O)c1nncn1-c1ccccc1 | > 4 mM (inactive) | – |
| N#Cc1cnn(Cc2ccc(Cl)cc2)c1N | > 4 mM (inactive) | – |
| COc1ccc(-c2cc(=O)c3c(OC(C)=O)cc(OC(C)=O)cc3o2)cc1 | > 4 mM (inactive) | – |
| OCc1nccn1Cc1ccccc1 | > 4 mM (inactive) | – |
| O=S(=O)(Nc1cccnc1Cl)c1ccccc1 | > 4 mM (inactive) | – |
| NCc1ccc(CN2CCOCC2)cc1 | > 4 mM (inactive) | – |
| OCC1CCCCCN1 (stereo not given) | > 4 mM (inactive) | – |
| O=[n+]1cc(-c2ccccc2)n([O-])c2c1CCC2 | > 4 mM (inactive) | – |
| COc1ccc2c(c1OC)C(=O)O[C@@H]2[C@@H]1c2cc3c(cc2CCN1C)OCO3 | > 4 mM (inactive) | – |
| O=C(COc1ccc(Cl)cc1Cl)N1CCOCC1 | inactive | – |
| COc1cc(C)nc(N(CCO)CCO)n1 | > 4 mM (inactive) | – |
| Cn1nc(C(=O)Nc2cccnc2)cc1Cl | > 4 mM (inactive) | – |
| Cc1nnc2n(c1=O)N=C(c1ccccc1)CS2 | > 4 mM (inactive) | – |
| CC(C)CCCC(C)[C@H]1CCC2C3CC[C@@H]4C[C@H](O)CC[C@]4(C)C3CC[C@@]21C (stereo not given in full) | > 4 mM (inactive) | – |
| CCOc1nc(C)ccc1-c1noc(-c2ccncc2)n1 | > 4 mM (inactive) | – |
| O=C(NCc1ccccc1F)c1cccs1 | > 4 mM (inactive) | – |
| O=C(O)C1CSC(c2ccccc2)N1 (stereo not given) | > 4 mM (inactive) | – |
| Cc1sc2nc[nH]c(=S)c2c1C | > 4 mM (inactive) | – |
| c1ccc(Cn2c(Nn3cnnc3)nc3ccccc32)cc1 | > 4 mM (inactive) | – |
| OC1CSc2ncnn2C1 (stereo not given) | > 4 mM (inactive) | – |
| O=C(c1ccc(F)cc1)N1CCOCC1 | > 4 mM (inactive) | – |
| CNS(=O)(=O)c1cccs1 | > 4 mM (inactive) | – |
